Data: PubChem BioAssay AID1259407 (Chemical Carcinogenesis Research Information System (CCRIS), 2018)
Calls of active or inactive are those of the source. No rule for the calls is given here.

Tested on: CCRIS mutagenicity, Ames/micronucleus/aberration tests
Assay: CCRIS mutagenicity studies
[1] = Test System: AMES SALMONELLA TYPHIMURIUM, Strain/Indicator: TA98, Metabolic Activation: NONE, Method: STANDARD PLATE
[2] = Test System: AMES SALMONELLA TYPHIMURIUM, Strain/Indicator: TA100, Metabolic Activation: NONE, Method: STANDARD PLATE
[3] = Test System: AMES SALMONELLA TYPHIMURIUM, Strain/Indicator: TA100, Metabolic Activation: S-9, Method: STANDARD PLATE
[4] = Test System: AMES SALMONELLA TYPHIMURIUM, Strain/Indicator: TA1535, Metabolic Activation: NONE, Method: STANDARD PLATE
[5] = Test System: AMES SALMONELLA TYPHIMURIUM, Strain/Indicator: TA1537, Metabolic Activation: NONE, Method: STANDARD PLATE
[6] = Test System: AMES SALMONELLA TYPHIMURIUM, Strain/Indicator: TA1535, Metabolic Activation: NONE, Method: PREINCUBATION
[7] = Test System: AMES SALMONELLA TYPHIMURIUM, Strain/Indicator: TA98, Metabolic Activation: NONE, Method: PREINCUBATION
[8] = Test System: AMES SALMONELLA TYPHIMURIUM, Strain/Indicator: TA100, Metabolic Activation: NONE, Method: PREINCUBATION
[9] = Test System: AMES SALMONELLA TYPHIMURIUM, Strain/Indicator: TA98, Metabolic Activation: RAT, LIVER, S-9, AROCLOR 1254, Method: STANDARD PLATE
[10] = Test System: AMES SALMONELLA TYPHIMURIUM, Strain/Indicator: TA100, Metabolic Activation: RAT, LIVER, S-9, AROCLOR 1254, Method: STANDARD PLATE
[11] = Test System: AMES SALMONELLA TYPHIMURIUM, Strain/Indicator: TA1535, Metabolic Activation: RAT, LIVER, S-9, AROCLOR 1254, Method: STANDARD PLATE
[12] = Test System: AMES SALMONELLA TYPHIMURIUM, Strain/Indicator: TA1537, Metabolic Activation: RAT, LIVER, S-9, AROCLOR 1254, Method: STANDARD PLATE
[13] = Test System: AMES SALMONELLA TYPHIMURIUM, Strain/Indicator: TA1538, Metabolic Activation: NONE, Method: STANDARD PLATE
[14] = Test System: AMES SALMONELLA TYPHIMURIUM, Strain/Indicator: TA1538, Metabolic Activation: RAT, LIVER, S-9, AROCLOR 1254, Method: STANDARD PLATE

For `CN(C(=O)CCCCl)c1snc2ccccc12`, the mutagenic call [1] was “inactive; negative”, the mutagenic call (Test System: AMES SALMONELLA TYPHIMURIUM, Strain/Indicator: TA98, Metabolic Activation: S-9, Method: STANDARD PLATE) was “inactive; negative” and the mutagenic call [2] was “inactive; negative”. The mutagenic call [3] was “inactive; negative”, the mutagenic call [4] was “inactive; negative” and the mutagenic call (Test System: AMES SALMONELLA TYPHIMURIUM, Strain/Indicator: TA1535, Metabolic Activation: S-9, Method: STANDARD PLATE) was “inactive; negative”. The mutagenic call [5] was “inactive; negative” and the mutagenic call (Test System: AMES SALMONELLA TYPHIMURIUM, Strain/Indicator: TA1537, Metabolic Activation: S-9, Method: STANDARD PLATE) was “inactive; negative”.

In the case of `CCON(OC(C)=O)C(=O)c1ccccc1`, the mutagenic call [1] is reported as “active; positive”, the mutagenic call [2] is reported as “active; positive” and the mutagenic call (Test System: AMES SALMONELLA TYPHIMURIUM, Strain/Indicator: TA100, Metabolic Activation: RAT, S-9, AROCLOR, Method: STANDARD PLATE) is reported as “active; positive”.

`CC(=O)OC(C(C)=O)N(C)N=O` (stereo not given) was tested, and the mutagenic call [6] was “active; positive”.

In the case of `C[n+]1c2cc(N)ccc2cc2ccc(N)cc21`, the mutagenic call [6] is reported as “inactive; negative”, the mutagenic call (Test System: AMES SALMONELLA TYPHIMURIUM, Strain/Indicator: TA1535, Metabolic Activation: RAT, LIVER, S-9, TETRACHLOROBIPHENYL, Method: PREINCUBATION) is reported as “inactive; negative” and the mutagenic call (Test System: AMES SALMONELLA TYPHIMURIUM, Strain/Indicator: TA1537, Metabolic Activation: NONE, Method: PREINCUBATION) is reported as “active; positive”. For the same compound, the mutagenic call (Test System: AMES SALMONELLA TYPHIMURIUM, Strain/Indicator: TA1537, Metabolic Activation: RAT, LIVER, S-9, TETRACHLOROBIPHENYL, Method: PREINCUBATION) was “active; positive”, the mutagenic call (Test System: AMES SALMONELLA TYPHIMURIUM, Strain/Indicator: TA1538, Metabolic Activation: NONE, Method: PREINCUBATION) was “inactive; negative” and the mutagenic call (Test System: AMES SALMONELLA TYPHIMURIUM, Strain/Indicator: TA1538, Metabolic Activation: RAT, LIVER, S-9, TETRACHLOROBIPHENYL, Method: PREINCUBATION) was “active; positive”. For the same compound, the mutagenic call (Test System: AMES SALMONELLA TYPHIMURIUM, Strain/Indicator: TA1977, Metabolic Activation: NONE, Method: PREINCUBATION) was “active; positive”, the mutagenic call (Test System: AMES SALMONELLA TYPHIMURIUM, Strain/Indicator: TA1977, Metabolic Activation: RAT, LIVER, S-9, TETRACHLOROBIPHENYL, Method: PREINCUBATION) was “active; positive” and the mutagenic call (Test System: AMES SALMONELLA TYPHIMURIUM, Strain/Indicator: TA1978, Metabolic Activation: NONE, Method: PREINCUBATION) was “inactive; negative”. For the same compound, the mutagenic call (Test System: AMES SALMONELLA TYPHIMURIUM, Strain/Indicator: TA1978, Metabolic Activation: RAT, LIVER, S-9, TETRACHLOROBIPHENYL, Method: PREINCUBATION) was “inactive; negative”.

For `N#CCc1ccccc1[N+](=O)[O-]`, the mutagenic call (Test System: AMES SALMONELLA TYPHIMURIUM, Strain/Indicator: TA97, Metabolic Activation: HAMSTER, LIVER, S-9, AROCLOR 1254 (10%), Method: PREINCUBATION) was “inactive; negative”, the mutagenic call (Test System: AMES SALMONELLA TYPHIMURIUM, Strain/Indicator: TA97, Metabolic Activation: NONE, Method: PREINCUBATION) was “active; positive” and the mutagenic call (Test System: AMES SALMONELLA TYPHIMURIUM, Strain/Indicator: TA97, Metabolic Activation: RAT, LIVER, S-9, AROCLOR 1254 (10%), Method: PREINCUBATION) was “inactive; negative”. The mutagenic call (Test System: AMES SALMONELLA TYPHIMURIUM, Strain/Indicator: TA98, Metabolic Activation: HAMSTER, LIVER, S-9, AROCLOR 1254 (10%), Method: PREINCUBATION) was “inactive; negative”, the mutagenic call [7] was “active; positive” and the mutagenic call (Test System: AMES SALMONELLA TYPHIMURIUM, Strain/Indicator: TA98, Metabolic Activation: RAT, LIVER, S-9, AROCLOR 1254 (10%), Method: PREINCUBATION) was “inactive; negative”. For the same compound, the mutagenic call (Test System: AMES SALMONELLA TYPHIMURIUM, Strain/Indicator: TA100, Metabolic Activation: HAMSTER, LIVER, S-9, AROCLOR 1254 (10%), Method: PREINCUBATION) was “active; positive”, the mutagenic call [8] was “active; positive” and the mutagenic call (Test System: AMES SALMONELLA TYPHIMURIUM, Strain/Indicator: TA100, Metabolic Activation: RAT, LIVER, S-9, AROCLOR 1254 (10%), Method: PREINCUBATION) was “active; positive”. The mutagenic call (Test System: AMES SALMONELLA TYPHIMURIUM, Strain/Indicator: TA1535, Metabolic Activation: HAMSTER, LIVER, S-9, AROCLOR 1254 (10%), Method: PREINCUBATION) was “active; positive”, the mutagenic call [6] was “inactive; negative” and the mutagenic call (Test System: AMES SALMONELLA TYPHIMURIUM, Strain/Indicator: TA1535, Metabolic Activation: RAT, LIVER, S-9, AROCLOR 1254 (10%), Method: PREINCUBATION) was “active; positive”.

With `O=[N+]([O-])c1cc(C(F)(F)F)cc([N+](=O)[O-])c1Cl` the mutagenic call [1] was “inactive; negative”, the mutagenic call [9] was “inactive; negative” and the mutagenic call [2] was “inactive; negative”. For the same compound, the mutagenic call [10] was “inactive; negative”, the mutagenic call [4] was “inactive; negative” and the mutagenic call [11] was “inactive; negative”. The mutagenic call [5] was “inactive; negative”, the mutagenic call [12] was “inactive; negative” and the mutagenic call [13] was “inactive; negative”. For the same compound, the mutagenic call [14] was “inactive; negative”.

For `O=C(N=c1sn(C(=O)c2ccc(Cl)c(Cl)c2)c2ccc([N+](=O)[O-])cc12)c1ccc(Cl)c(Cl)c1`, the mutagenic call [3] was “active; positive”.

`COc1cc(C)cc2c(O)c(-c3c(C)cc4c(O)ccc(O)c4c3OC)cc(O)c12` was tested, and the mutagenic call [7] was “inactive; negative”, the mutagenic call (Test System: AMES SALMONELLA TYPHIMURIUM, Strain/Indicator: TA98, Metabolic Activation: RAT, LIVER, S-9, AROCLOR 1254, Method: PREINCUBATION) was “inactive; negative” and the mutagenic call [8] was “inactive; negative”. The mutagenic call (Test System: AMES SALMONELLA TYPHIMURIUM, Strain/Indicator: TA100, Metabolic Activation: RAT, LIVER, S-9, AROCLOR 1254, Method: PREINCUBATION) was “inactive; negative”.

For `O=S1(=O)OC(c2cc(Br)c(O)c(Br)c2)(c2cc(Br)c(O)c(Br)c2)c2c(Br)c(Br)c(Br)c(Br)c21`, the mutagenic call [1] was “inactive; negative”, the mutagenic call [9] was “inactive; negative” and the mutagenic call [2] was “inactive; negative”. The mutagenic call [10] was “inactive; negative”, the mutagenic call [4] was “inactive; negative” and the mutagenic call [11] was “inactive; negative”. The mutagenic call [5] was “inactive; negative”, the mutagenic call [12] was “inactive; negative” and the mutagenic call [13] was “inactive; negative”. The mutagenic call [14] was “inactive; negative”, the mutagenic call (Test System: MOUSE LYMPHOMA, Strain/Indicator: L5178Y (TK+/TK-), Metabolic Activation: NONE, Method: SUSPENSION/PLATE) was “inactive; negative” and the mutagenic call (Test System: MOUSE LYMPHOMA, Strain/Indicator: L5178Y (TK+/TK-), Metabolic Activation: RAT, LIVER, S-9, AROCLOR 1254, Method: SUSPENSION/PLATE) was “inactive; negative”.

With `CC(C)=C/C(C)=N/Nc1nncc2ccccc12` the mutagenic call [2] was “active; positive”, the mutagenic call (Test System: AMES SALMONELLA TYPHIMURIUM, Strain/Indicator: TA100, Metabolic Activation: RAT, LIVER, S-9, PHENOBARBITAL, Method: STANDARD PLATE) was “active; positive” and the mutagenic call (Test System: UDS RAT HEPATOCYTES, Strain/Indicator: THY INCORP, Metabolic Activation: NONE, Method: AUTORADIOGRAPHY) was “inactive; negative”.

With `CC1=CC(=O)c2c(O)c3c(c(O)c2C1=O)C1C(O)C(C3=O)C23C(=O)c4c(O)c(C)cc(O)c4C(O)=C2C(=O)CC(O)C13` (stereo not given) the mutagenic call (Test System: UDS RODENT HEPATOCYTES, Strain/Indicator: THY INCORP, Metabolic Activation: NONE, Method: AUTORADIOGRAPHY) was “inactive; negative”.
